Assay results as given in US8906897B2, “Antimicrobial agents based on hemin derivatives” (Obschestvo S Ogranichennoi Otvetstvennostiyu …, priority 2009, dated 2014).
Non-standard residues stand in square brackets, D forms with d. Residues, ends and D or L forms follow the SMILES beside them. Orn = NCCC[C@H](N)C(=O)O

Tests used:
[1] = system: Cryptococcus neoformans No. 3465; assay: Antifungal activity, culture growth with pH indicator; assay type: cell-based; design: key: (−) No growth; the indicator is blue; (±) Weak growth; the indicator is yellow, but the precipitate of grown cells looks as a diffuse spot; (+) Strong growth; the indicator is yellow, and the cell precipitate looks as a compact spot
Description: (§1) The subjects of action were Cryptococcus neoformans No. 3465 museum strain cells and Candida albicans No. 927 museum strain cells grown for one day on a glucose-peptone-yeast medium at 32° C. The reference compounds were the following antimycotics: pimafucin, amphotericin, and fluconazole.
(§2) Experiments were carried out on round-bottomed 96-well plates (Lenmedpolimer) in two replicas. To the first column (0), added was 10 μL of the stock solution of a water-soluble agent with concentrations of 10^−2 to 10^−3 mol/L; to the second column, added was also the same 10 μL plus 10 μL of the solvent corresponding to the given compound, suspended, 10 μL was transferred to the next well, and so on to the 8th well of the row. Stock solutions of water-insoluble compounds of general formula (I) (compounds V, VIII, XII, XIII, XIV, and hemin) were prepared in DMSO and were diluted with DMSO and the medium. DMSO concentrations in the reaction mixture in a well were ≦5%.
(§3) Then, to every well added was 190 μL of a Cr. neoformans cell culture suspension in a synthetic nutritional medium (so that the final cell concentration was approximately 10^3 CFU/mL), this medium containing Bromocresol Blue as a pH-indicator (pH: 5.5; indicator color: blue). As pH reduced to 4.5, the indicator in the culture changed its color to yellow, thereby indicating fungal cell growth. The synthetic medium comprised the following components: salts, amino acids, microelements, vitamins, an antibiotic, and glucose (30 components altogether) [Yarrow, D., “Methods for the Isolation, Maintenance and Identification of Yeasts,” in: The Yeasts. A Taxonomic Study, Ed. by Kurtsman, C. P, and Fell, M., Elsevier, 1998, pp. 77-100]. After being inoculated with a Cr. neoformans cell suspension, the plate was incubated at 32° C. for 1 h with stirring, then transferred to a stationary thermostat and incubated for two and five days at 27° C. After being inoculated with a C. albicans cell suspension, the plates were incubated for 1 h at 32° C. with stirring, then transferred to a stationary thermostat and incubated for one and four days at 27° C.

human leukocytes = assay: Cytotoxic activity against human leukocytes; conditions: for toxic effect on human blood leukocytes (in words): concentrations of up to 1 mM, 3 h
Description: Total leukocytes were isolated from human blood by unforced sedimentation using freshly collected venous blood from a healthy donor.
Blood (10 mL) added with 10 units/mL heparin was exposed for 2.5 h in the dark at a temperature of 15 to 18° C. A light-colored liquid supernatant (4 mL) was collected over the layer of sedimenting erythrocytes, washed three times with balanced Hanks's salt solution, and resuspended in the RPMI-1640 medium (added with 8% fetal bovine serum, 2 mM L-glutamine, and 10 mM HEPES; hereinafter, the complete medium).
The concentrations of leukocytes and erythrocytes in the suspension were determined by counts in Goryachev's chamber, after which the suspension was adjusted to a leukocyte concentration of (1.0±0.1)×10^6 cells/mL with the complete medium.
To determine the cytotoxicity of the tested compounds for human leukocytes, the cell suspension was transferred to wells of sterile 96-well plates, tested compounds were added with serial twofold dilutions (the range of tested concentrations was from 3.2 to 100 μM for GrD and gramicidin S; from 8 to 500 μM for compound XIII; and from 8 to 1000 μM for compounds V, VI, VII, VIII, IX, X, XI, XIV, XV, XIX, and Hem), and the mixture was carefully stirred. The experiment was performed in two replicas.
As controls served cells added with an equivalent amount of the solvent in which tested compounds were prepared, namely: water for compounds VII and X; an aqueous solution of DMSO for compounds V, VI, VIII, and IX; and DMSO for GrD, gramicidin S, Hem, XI, XIII, XIV, XV, and XIX. An additional control was an additive-free leukocyte suspension.
Cells were incubated with tested compounds for 3 h (37° C., 5% CO2, 100% humidity). Leukocyte death values were quantified using fluorescence microscopy. Staining with propidium iodide (it permeates only into dead cells nuclei) and Hoechst 33342 (it stains all nuclei) was used to recognize dead and living cells. Cells were incubated for 15 min in plates with propidium iodide and Hoechst 33342 (37° C., 5% CO2), and then the plates were placed under a microscope for analysis.
The dead cell fraction was derived from the fluorescence images of cells obtained in the blue (Hoechst 33342) and red (propidium iodide) spectral ranges using an Axio Observer (Zeiss, Germany) fluorescence microscope equipped with a 10× objective lens (Plan-Neofluar 10×/0.3). The following sets of fluorescence filters were used. For propidium iodide: a 530/585-nm bandpass excitation filter, a 600-nm cut-off dichroic minor, and a 615-nm longpass barrier filter for analysis. For Hoechst 33342: a 359/372-nm bandpass excitation filter, a 395-nm cut-off dichroic mirror, and a 397-nm longpass barrier filter for analysis.
A digital camera recorded three types of cell images: (a) an image in the transmitted white light; (b) a blue fluorescence image obtained with UV excitation, and (c) a red fluorescence image obtained with green light excitation. At least four fields of view were photographed per well in various regions of a well.

Candida albicans No. 927 = assay: Antifungal activity, culture growth with pH indicator; assay type: cell-based; design: key to Test culture growth at various dilutions of the agent: (−) No growth; the indicator is blue; (±) Weak growth; the indicator is yellow, but the precipitate of grown cells looks as a diffuse spot; (+) Strong growth; the indicator is yellow, and the cell precipitate looks as a compact spot
Description: as §1, §2, §3

[2] = dilution : 16 of 5.00 × 10^−4 M
[3] = dilution : 32 of 5.00 × 10^−4 M
[4] = dilution : 64 of 5.00 × 10^−4 M
[5] = dilution : 128 of 5.00 × 10^−4 M

Row | Molecule | Test culture growth at various dilutions of the agent on day 2 ([1]; dilution 0: 5.00 × 10^−4 M) | Test culture growth at various dilutions of the agent on day 2 ([1]; dilution : 2 of 5.00 × 10^−4 M) | Test culture growth at various dilutions of the agent on day 2 ([1]; dilution : 4 of 5.00 × 10^−4 M) | Test culture growth at various dilutions of the agent on day 2 ([1]; dilution : 8 of 5.00 × 10^−4 M) | Test culture growth at various dilutions of the agent on day 2 [1, 2] | Test culture growth at various dilutions of the agent on day 2 [1, 3] | Test culture growth at various dilutions of the agent on day 2 [1, 4] | Test culture growth at various dilutions of the agent on day 2 [1, 5] | toxic effect on human blood leukocytes (in words) (human leukocytes) | Test culture growth at various dilutions of the agent (Candida albicans No. 927; dilution 0: 1 × 10^−4 M) | Test culture growth at various dilutions of the agent (Candida albicans No. 927; dilution : 2 of 1 × 10^−4 M) | Test culture growth at various dilutions of the agent (Candida albicans No. 927; dilution : 4 of 1 × 10^−4 M) | Test culture growth at various dilutions of the agent (Candida albicans No. 927; dilution : 8 of 1 × 10^−4 M) | Test culture growth at various dilutions of the agent (Candida albicans No. 927; dilution : 16 of 1 × 10^−4 M) | Test culture growth at various dilutions of the agent (Candida albicans No. 927; dilution : 32 of 1 × 10^−4 M) | Test culture growth at various dilutions of the agent (Candida albicans No. 927; dilution : 64 of 1 × 10^−4 M) | also measured
1 | C[C@@H]1[C@H](O)[C@@H](C)/C=C/C=C/C=C/C=C/C=C/C=C/C=C/[C@H](O[C@@H]2O[C@H](C)[C@@H](O)[C@H](N)[C@@H]2O)C[C@@H]2O[C@](O)(C[C@@H](O)C[C@@H](O)[C@H](O)CC[C@@H](O)C[C@@H](O)CC(=O)O[C@H]1C)C[C@H](O)[C@H]2C(=O)O [Amphotericin B, reference compound] | −** | − | − | − | − | − | − | − |  |  |  |  |  |  |  |  | 
2 | C=CC1=C(C)c2cc3[n-]c(cc4nc(cc5[n-]c(cc1n2)c(C)c5CCC(=O)NCCC(=O)N[C@@H](Cc1c[nH]cn1)C(=O)O)C(CCC(=O)NCCC(=O)N[C@@H](Cc1c[nH]cn1)C(=O)O)=C4C)c(C)c3C=C.[Cl-].[Fe+3] [Compound X] |  |  |  |  |  |  |  |  | did not cause the death |  |  |  |  |  |  |  | Death of leukocytes in the presence of 1 mM of compound (human leukocytes; 1 mM, 3 h incubation): 4.9 ± 0.3%
3 | OC(Cn1cncn1)(Cn1cncn1)c1ccc(F)cc1F [Fluconazole, reference compound] | ±** | ± | ± | + | + | + | + | + |  |  |  |  |  |  |  |  | 
4 | CC(C)C[C@@H]1NC(=O)[C@H](CCCN)NC(=O)[C@H](C(C)C)NC(=O)[C@@H]2CCCN2C(=O)[C@@H](Cc2ccccc2)NC(=O)[C@H](CC(C)C)NC(=O)[C@H](CCCN)NC(=O)[C@H](C(C)C)NC(=O)[C@@H]2CCCN2C(=O)[C@@H](Cc2ccccc2)NC1=O [Gramicidin S, reference compound] (cyclo(L[dF]PV[Orn]L[dF]PV[Orn])) |  |  |  |  |  |  |  |  | fully due to the toxic effect of the solvent |  |  |  |  |  |  |  | 
5 | C[C@@H]1C/C=C/C=C/C=C/C=C/[C@H](O[C@@H]2O[C@H](C)[C@@H](O)[C@H](N)[C@@H]2O)C[C@@H]2O[C@](O)(C[C@@H](O)C[C@H]3O[C@@H]3/C=C/C(=O)O1)C[C@H](O)[C@H]2C(=O)O [Pimafucin, reference compound] |  |  |  |  |  |  |  |  |  | − | − | − | − | − | + | + | 
6 | N^α-[6(7)-(Protohemin IX)-yl]-ArgArgTrpTrpArgPhe-OH ({protohemin IX}-RRWWRF-OH) [Compound XX] |  |  |  |  |  |  |  |  |  | ± | ± | ± | ± | ± | ± | ± | 
